Drawing on patent publication US6610721B2, “Imidazo heterocyclic compounds” (Novo Nordisk A/S, priority 2000, dated 2003), this text covers melting point for 14 molecules.

Counter-ions that a name gives are not always drawn.

The melting point is the temperature, or range, at which the solid turns liquid.

Turning to `Cl.Clc1ccccc1OCC1CCc2[nH]cnc2C1` (centres unmarked), the melting point lay in the range of 224 to 226 °C.

For the molecule `Cl.Fc1ccccc1OCC1CCc2[nH]cnc2C1` (centres unmarked), the melting point was 192 to 194 °C.

`Cl.FC(F)(F)Oc1cccc(OCC2CCc3[nH]cnc3C2)c1` (centres unmarked): the melting point lay in the range of 170 to 171 °C.

Take `Cl.c1ccc(-c2cccc(OCC3CCc4[nH]cnc4C3)c2)cc1` (centres unmarked): the melting point was in the range of 165 to 167 °C.

For the molecule `Cl.Clc1ccccc1OCC1CCCc2[nH]cnc21` (centres unmarked), the melting point was in the range of 207 to 209 °C.

Molecule `FC(F)(F)c1ccc(OCC2CCCc3[nH]cnc32)cc1` (centres unmarked) (as salt: hydrochloride) displayed a melting point of 242 to 244 °C.

`Cc1cc(C#N)cc(C)c1OCC1CCCc2[nH]cnc21` (centres unmarked) (as salt: hydrochloride) showed a melting point of 190 to 192 °C.

In the case of `N#Cc1ccc(OCC2CCCc3[nH]cnc32)c(Cl)c1` (centres unmarked) (as salt: hydrochloride), the melting point was 225 to 227 °C.

Molecule `COc1cc(C#N)ccc1OCC1CCCc2[nH]cnc21` (centres unmarked) (as salt: hydrochloride) displayed a melting point of 193 to 195 °C.

`O=C1CCCc2c(OCC3CCCc4[nH]cnc43)cccc21` (centres unmarked) (as salt: hydrochloride) registered a melting point of 237 to 240 °C.

`Clc1ccc(OCC2CCCc3[nH]cnc32)cc1` (centres unmarked) (as salt: hydrochloride): the melting point lay within 210 to 212 °C.

As for `N#Cc1ccc(OCC2CCCCc3[nH]cnc32)cc1` (centres unmarked) (as salt: hydrochloride) [Example 57, 4-(1,4,5,6,7,8-Hexahydrocycloheptaimidazol-4-ylmethoxy)benzonitrile, Hydrochloride], the melting point is 232 to 235 °C.

For `FC(F)(F)Oc1ccc(OCC2CCCc3[nH]cnc32)cc1` (centres unmarked) (as salt: hydrochloride) [Example 58, 4-(4-Trifluoromethoxyphenoxymethyl)-4,5,6,7-tetrahydro-1H-benzimidazole, Hydrochloride], the melting point lay in the range of 202 to 209 °C.

Consider `O=C(c1ccc(OCC2CCCc3[nH]cnc32)cc1)C1CC1` (centres unmarked) (as salt: hydrochloride) [Example 63, Cyclopropyl-[4-(4,5,6,7-tetrahydro-1H-benzimidazol-4-ylmethoxy)phenyl]methanone, hydrochloride], for which the melting point was in the range of 211 to 213 °C.
